Patent publication EP4692090A1 (Shanghai Fosun Pharmaceutical (Group) Co., Ltd., priority 2023, dated 2024)
Where two headings read alike, the source gives them in different places.

Key:
LoVo cells = experiment: LoVo cell proliferation assay (CellTiter-Glo); type: cell-based; details: Homo sapiens, LoVo, 120 h, maximum concentration 10 µM, 9 concentrations
In short: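 LoVo cells, 2,000 per well, were treated after overnight attachment with 9-point 3-fold dilutions from 10 µM for 5 days at 37 °C. Viability was read by CellTiter-Glo luminescence. Inhibition % was taken relative to DMSO control, and IC50 came from the concentration–inhibition curve.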

ATR kinase = molecular target: T1, ATR kinase (Homo sapiens, UniProt Q13535); experiment: Inhibitory effect on ATR kinase activity (Caliper mobility shift, FAM-labeled RAD17 peptide substrate); type: biochemical
T1 construct: purchased Eurofins 14-953
In short: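 Caliper mobility-shift assay with 1 nM ATR, FAM-labeled RAD17 peptide […] and 5 mM ATP in HEPES pH 7.5 with 10 mM MnCl2, run 3 h at 28 °C and stopped with EDTA. Compounds were tested in 10-point 3-fold dilutions from 1 µM. IC50 was fitted from % inhibition of substrate conversion versus blank control.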

[1] = read-out: LoVo IC50 (nM), LoVo cells, 2,000 cells per well, 5 days incubation, CellTiter-Glo
[2] = read-out: ATR kinase IC50, 1 nM ATR kinase (Eurofins), 28°C for 3 hours, maximum concentration 1 µM, 10 concentrations
[3] = LoVo cells, 2,000 cells per well, 5 days incubation, CellTiter-Glo, read-out: LoVo IC50
[4] = 1 nM ATR kinase (Eurofins), 28°C for 3 hours, maximum concentration 1 µM, 10 concentrations, read-out: ATR kinase IC50

T1 sequence (Q13535 whole entry): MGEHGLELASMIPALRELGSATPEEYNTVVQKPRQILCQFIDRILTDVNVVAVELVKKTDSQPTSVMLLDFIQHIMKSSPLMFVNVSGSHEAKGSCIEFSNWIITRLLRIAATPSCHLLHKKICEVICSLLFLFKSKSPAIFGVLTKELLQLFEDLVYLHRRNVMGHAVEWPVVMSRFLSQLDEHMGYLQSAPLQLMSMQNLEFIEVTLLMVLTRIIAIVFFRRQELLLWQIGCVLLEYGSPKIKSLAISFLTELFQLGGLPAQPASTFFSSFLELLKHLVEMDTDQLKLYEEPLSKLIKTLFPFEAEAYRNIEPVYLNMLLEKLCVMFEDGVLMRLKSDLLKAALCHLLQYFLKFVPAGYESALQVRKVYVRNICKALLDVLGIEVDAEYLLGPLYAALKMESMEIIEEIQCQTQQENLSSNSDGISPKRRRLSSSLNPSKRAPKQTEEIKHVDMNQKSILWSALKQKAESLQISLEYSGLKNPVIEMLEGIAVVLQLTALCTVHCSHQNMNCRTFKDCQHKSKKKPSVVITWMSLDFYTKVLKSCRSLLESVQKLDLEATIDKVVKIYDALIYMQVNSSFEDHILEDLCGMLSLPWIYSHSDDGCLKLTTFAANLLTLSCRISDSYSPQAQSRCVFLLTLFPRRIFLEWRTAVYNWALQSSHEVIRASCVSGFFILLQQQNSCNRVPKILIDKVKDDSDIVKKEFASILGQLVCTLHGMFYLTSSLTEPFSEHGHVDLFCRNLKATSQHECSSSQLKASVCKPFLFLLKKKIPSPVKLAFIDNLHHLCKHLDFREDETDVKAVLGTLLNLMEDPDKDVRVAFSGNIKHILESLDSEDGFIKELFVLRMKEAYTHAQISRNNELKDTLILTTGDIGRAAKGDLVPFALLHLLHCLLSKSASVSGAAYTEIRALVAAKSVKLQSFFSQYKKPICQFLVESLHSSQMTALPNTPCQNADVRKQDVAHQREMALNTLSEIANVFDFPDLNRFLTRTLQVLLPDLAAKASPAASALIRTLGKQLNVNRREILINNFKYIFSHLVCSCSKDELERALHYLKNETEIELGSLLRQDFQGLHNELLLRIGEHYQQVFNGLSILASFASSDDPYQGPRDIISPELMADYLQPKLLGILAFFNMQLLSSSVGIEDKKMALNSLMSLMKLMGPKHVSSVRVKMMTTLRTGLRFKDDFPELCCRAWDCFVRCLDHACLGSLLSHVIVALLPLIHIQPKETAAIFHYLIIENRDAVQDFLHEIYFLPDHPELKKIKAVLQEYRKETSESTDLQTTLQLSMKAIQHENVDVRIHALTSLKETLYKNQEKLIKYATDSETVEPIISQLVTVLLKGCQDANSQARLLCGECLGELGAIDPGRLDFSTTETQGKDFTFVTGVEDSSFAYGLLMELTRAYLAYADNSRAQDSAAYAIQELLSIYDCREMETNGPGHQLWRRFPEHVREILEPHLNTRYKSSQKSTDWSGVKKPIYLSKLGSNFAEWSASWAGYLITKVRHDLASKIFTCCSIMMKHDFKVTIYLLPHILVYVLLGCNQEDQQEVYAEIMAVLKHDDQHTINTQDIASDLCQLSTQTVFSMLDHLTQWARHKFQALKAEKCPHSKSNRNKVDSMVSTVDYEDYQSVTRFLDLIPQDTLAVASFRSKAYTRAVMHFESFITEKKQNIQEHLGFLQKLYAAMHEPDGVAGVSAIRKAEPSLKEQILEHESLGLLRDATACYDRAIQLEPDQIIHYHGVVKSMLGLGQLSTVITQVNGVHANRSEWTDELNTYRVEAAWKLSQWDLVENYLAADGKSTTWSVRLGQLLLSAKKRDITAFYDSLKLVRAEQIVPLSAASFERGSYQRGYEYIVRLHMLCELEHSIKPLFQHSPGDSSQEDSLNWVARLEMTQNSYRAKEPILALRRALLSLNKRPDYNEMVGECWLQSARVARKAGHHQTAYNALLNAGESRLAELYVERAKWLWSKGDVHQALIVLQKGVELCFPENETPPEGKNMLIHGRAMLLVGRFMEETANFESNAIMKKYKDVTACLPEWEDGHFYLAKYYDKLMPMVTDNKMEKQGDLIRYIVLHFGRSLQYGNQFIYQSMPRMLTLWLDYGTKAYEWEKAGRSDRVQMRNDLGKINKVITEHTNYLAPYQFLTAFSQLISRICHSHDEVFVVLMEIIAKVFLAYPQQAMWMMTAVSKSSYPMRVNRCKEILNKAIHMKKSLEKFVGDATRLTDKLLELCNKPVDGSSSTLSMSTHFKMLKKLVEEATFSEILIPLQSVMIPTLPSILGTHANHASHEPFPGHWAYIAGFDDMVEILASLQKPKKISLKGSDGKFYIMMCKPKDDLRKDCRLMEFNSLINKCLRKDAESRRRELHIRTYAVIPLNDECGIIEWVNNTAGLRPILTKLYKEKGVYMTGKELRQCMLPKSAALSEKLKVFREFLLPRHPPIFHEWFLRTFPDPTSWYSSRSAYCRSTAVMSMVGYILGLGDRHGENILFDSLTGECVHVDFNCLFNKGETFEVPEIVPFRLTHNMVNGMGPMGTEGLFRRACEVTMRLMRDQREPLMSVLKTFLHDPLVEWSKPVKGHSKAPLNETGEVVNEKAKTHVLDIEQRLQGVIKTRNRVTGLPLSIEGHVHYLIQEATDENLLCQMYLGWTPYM
T1 sequence (Q8WXE1 whole entry partner): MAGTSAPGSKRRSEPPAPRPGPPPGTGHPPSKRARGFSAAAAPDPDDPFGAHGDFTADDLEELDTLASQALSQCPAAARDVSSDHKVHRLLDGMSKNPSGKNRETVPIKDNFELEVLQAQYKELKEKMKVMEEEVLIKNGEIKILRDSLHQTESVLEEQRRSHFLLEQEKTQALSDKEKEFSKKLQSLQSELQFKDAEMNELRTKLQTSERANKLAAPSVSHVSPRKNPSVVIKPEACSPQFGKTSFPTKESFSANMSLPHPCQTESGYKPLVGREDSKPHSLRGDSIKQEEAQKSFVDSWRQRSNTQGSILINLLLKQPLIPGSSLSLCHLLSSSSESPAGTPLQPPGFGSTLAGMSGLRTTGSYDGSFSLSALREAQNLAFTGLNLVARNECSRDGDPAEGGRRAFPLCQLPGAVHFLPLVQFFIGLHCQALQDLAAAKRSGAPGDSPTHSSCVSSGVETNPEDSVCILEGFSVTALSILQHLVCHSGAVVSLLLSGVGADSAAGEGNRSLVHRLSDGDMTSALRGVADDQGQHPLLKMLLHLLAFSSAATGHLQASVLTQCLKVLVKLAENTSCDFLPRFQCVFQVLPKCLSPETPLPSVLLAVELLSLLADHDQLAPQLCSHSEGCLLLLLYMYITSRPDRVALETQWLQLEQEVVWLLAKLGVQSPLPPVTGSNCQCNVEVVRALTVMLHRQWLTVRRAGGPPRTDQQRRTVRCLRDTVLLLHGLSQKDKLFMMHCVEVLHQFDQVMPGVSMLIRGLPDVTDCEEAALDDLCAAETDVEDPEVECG

| SMILES | IC50 (LoVo cells; [1]) [nM] | IC50 (ATR kinase; [2]) [nM] | IC50 (LoVo cells; [3]) [nM] | IC50 (ATR kinase; [4]) [nM] | IC50 (ATR kinase; ATR kinase IC50 (nM), 1 nM ATR kinase (Eurofins), 28°C for 3 hours, maximum concentration 1 µM, 10 concentrations) [nM] |
| --- | --- | --- | --- | --- | --- |
| C[C@@H]1COCCN1c1cc2c3c(n1)c(-c1cc[nH]n1)nn3CCC(=O)N2C1CC1(F)F (stereo partly drawn) [Compound 89, 6-(2,2-difluorocyclopropyl)-4-((R)-3-methylmorpholinyl)-2-(1H-pyrazol-3-yl)-8,9-dihydro-1,3,6,9a-tetraazabenzo[cd]azulene-7(6H)-one] | 100 to 1000 | < 10 |  |  |  |
| C[C@@H]1COCCN1c1cc2c3c(n1)c(-c1cc[nH]n1)nn3CCC(=O)N2C1CCOC1 (stereo partly drawn) [Compound 90, 4-((R)-3-methylmorpholino)-2-(1H-pyrazol-3-yl)-6-(tetrahydrofuran-3-yl)-8,9-dihydro-1,3,6,9a-tetraazabenzo[cd]azulene-7(6H)-one] |  |  | 100 to 1000 | 10 to 100 |  |
| C[C@@H]1COCCN1c1cc2c3c(n1)c(-c1cc[nH]n1)nn3CCC(=O)N2C1CCOCC1 [Compound 91, (R)-4-(3-methylmorpholino)-2-(1H-pyrazol-3-yl)-6-(tetrahydro-2H-pyran-4-yl)-8,9-dihydro-1,3,6,9a-tetraazabenzo[cd]azulene-7(6H)-one] |  |  | 100 to 1000 | 10 to 100 |  |
| C[C@@H]1COCCN1c1cc2c3c(n1)c(-c1cc[nH]n1)nn3CCC(=O)N2C1CC2(CCC2)C1 [Compound 92, (R)-4-(3-methylmorpholino)-2-(1H-pyrazol-3-yl)-6-(spiro [3.3]hept-2-yl)-8,9-dihydro-1,3,6,9a-tetraazabenzo[cd]azulene-7(6H)-one] |  |  | 100 to 1000 | 10 to 100 |  |
| C[C@@H]1COCCN1c1cc2c3c(n1)c(-c1cc[nH]n1)nn3CCC(=O)N2 [Compound 93, (R)-4-(3-methylmorpholino)-2-(1H-pyrazol-3-yl)-8,9-dihydro-1,3,6,9a-tetraazabenzo[cd]azulene-7(6H)-one] |  |  | 100 to 1000 | 10 to 100 |  |
| C[C@@H]1COCCN1c1cc2c3c(n1)c(-c1cc[nH]n1)nn3CCC(=O)N2CC(C)(C)O [Compound 95, (R)-6-(2-hydroxy-2-methylpropyl)-4-(3-methylmorpholinyl)-2-(1H-pyrazol-3-yl)-8,9-dihydro-1,3,6,9a-tetraazabenzo[cd]azulene-7(6H)-one] | 100 to 1000 | 10 to 100 |  |  |  |
| C[C@@H]1COCCN1c1cc2c3c(n1)c(-c1cc[nH]n1)nn3CCC(=O)N2C1CC1C(F)(F)F (stereo partly drawn) [Compound 96, 4-((R)-3-methylmorpholinyl)-2-(1H-pyrazol-3-yl)-6-(2-(trifluoromethyl)cyclopropyl)-8,9-dihydro-1,3,6,9a-tetraazabenzo[cd]azulene-7(6H)-one] | 100 to 1000 | 10 to 100 |  |  |  |
| C[C@@H]1COCCN1c1cc2c3c(n1)c(-c1cc[nH]n1)nn3CCC(=O)N2C1CC2(CC(O)C2)C1 (stereo partly drawn) [Compound 97, (R)-6-(6-hydroxyspiro[3.3]hept-2-yl)-4-(3-methylmorpholinyl)-2-(1H-pyrazol-3-yl)-8,9-dihydro-1,3,6,9a-tetraazabenzo[cd]azulene-7(6H)-one] | 100 to 1000 | < 10 |  |  |  |
| CCC(C)N1C(=O)CCn2nc(-c3cc[nH]n3)c3nc(N4CCOC[C@H]4C)cc1c32 (stereo partly drawn) [Compound 98, 6-(sec-butyl)-4-((R)-3-methylmorpholinyl)-2-(1H-pyrazol-3-yl)-8,9-dihydro-1,3,6,9a-tetraazabenzo[cd]azulene-7(6H)-one] | < 100 | < 10 |  |  |  |
| C[C@@H]1COCCN1c1cc2c3c(n1)c(-c1cc[nH]n1)nn3CCC(=O)N2Cc1cnn(C)c1 [Compound 99, (R)-6-((1-methyl-1H-pyrazol-4-yl)methyl)-4-(3-methylmorpholinyl)-2-(1H-pyrazol-3-yl)-8,9-dihydro-1,3,6,9a-tetraazabenzo[cd]azulene-7(6H)-one] | 100 to 1000 | 10 to 100 |  |  |  |
| CC(C1CC1)N1C(=O)CCn2nc(-c3cc[nH]n3)c3nc(N4CCOC[C@H]4C)cc1c32 (stereo partly drawn) [Compound 100, 6-(1-cyclopropylethyl)-4-((R)-3-methylmorpholinyl)-2-(1H-pyrazol-3-yl)-8,9-dihydro-1,3,6,9a-tetraazabenzo[cd]azulene-7(6H)-one] | 100 to 1000 | 10 to 100 |  |  |  |
| C[C@@H]1COCCN1c1cc2c3c(n1)c(-c1cc[nH]n1)nn3CCC(=O)N2C1(C)COC1 [Compound 101, (R)-4-(3-methylmorpholinyl)-6-(3-methyloxetan-3-yl)-2-(1H-pyrazol-3-yl)-8,9-dihydro-1,3,6,9a-tetraazabenzo[cd]azulene-7(6H)-one] | 100 to 1000 | 10 to 100 |  |  |  |
| C[C@@H]1COCCN1c1cc2c3c(n1)c(-c1cc[nH]n1)nn3CCC(=O)N2C1(C(F)F)CC1 [Compound 102, (R)-6-(1-(difluoromethyl)cyclopropyl)-4-(3-methylmorpholinyl)-2-(1H-pyrazol-3-yl)-8,9-dihydro-1,3,6,9a-tetraazabenzo[cd]azulene-7(6H)-one] | < 100 | < 10 |  |  |  |
| C[C@@H]1COCCN1c1cc2c3c(n1)c(-c1cc[nH]n1)nn3CCC(=O)N2CC#CC(C)(C)O [Compound 103, (R)-6-(4-hydroxy-4-methylpent-2-yn-1-yl)-4-(3-methylmorpholinyl)-2-(1H-pyrazol-3-yl)-8,9-dihydro-1,3,6,9a-tetraazabenzo[cd]azulene-7(6H)-one] | 100 to 1000 | 10 to 100 |  |  |  |
| C[C@@H]1COCCN1c1cc2c3c(n1)c(-c1cc[nH]n1)nn3CCC(=O)N2C1(C#N)CC1 [Compound 105, (R)-1-(4-(3-methylmorpholinyl)-7-oxo-2-(1H-pyrazol-3-yl)-8,9-dihydro-1,3,6,9a-tetraazabenzo[cd]azulene-6(7H)-yl)cyclopropane-1-carbonitrile] | < 100 | < 10 |  |  |  |
| C=CC(C)N1C(=O)CCn2nc(-c3cc[nH]n3)c3nc(N4CCOC[C@H]4C)cc1c32 (stereo partly drawn) [Compound 106, 6-(but-3-en-2-yl)-4-((R)-3-methylmorpholinyl)-2-(1H-pyrazol-3-yl)-8,9-dihydro-1,3,6,9a-tetraazabenzo[cd]azulene-7(6H)-one] | < 100 | < 10 |  |  |  |
| COCC12CC(N3C(=O)CCn4nc(-c5cc[nH]n5)c5nc(N6CCOC[C@H]6C)cc3c54)(C1)C2 [Compound 107, (R)-6-(3-(methoxymethyl)bicyclo[1.1.1]pentan-1-yl)-4-(3-methylmorpholinyl)-2-(1H-pyrazol-3-yl)-8,9-dihydro-1,3,6,9a-tetraazabenzo[cd]azulene-7(6H)-one] | 100 to 1000 | < 10 |  |  |  |
| C[C@@H]1COCCN1c1cc2c3c(n1)c(-c1cc[nH]n1)nn3CCC(=O)N2C1(C2CC2)CC1 [Compound 108, (R)-6-([1,1'-bis(cyclopropane)]-1-yl)-4-(3-methylmorpholinyl)-2-(1H-pyrazol-3-yl)-8,9-dihydro-1,3,6,9a-tetraazabenzo[cd]azulene-7(6H)-one] | 100 to 1000 |  |  |  | < 10 |
| C[C@@H]1COCCN1c1cc2c3c(n1)c(-c1cc[nH]n1)nn3CCC(=O)N2C1CC(F)(F)C1 [Compound 109, (R)-6-(3,3-difluorocyclobutyl)-4-(3-methylmorpholinyl)-2-(1H-pyrazol-3-yl)-8,9-dihydro-1,3,6,9a-tetraazabenzo[cd]azulene-7(6H)-one] | 100 to 1000 | 10 to 100 |  |  |  |
| C[C@@H]1COCCN1c1cc2c3c(n1)c(-c1cc[nH]n1)nn3CCC(=O)N2C12CC(C1)C2 [Compound 110, (R)-6-(bicyclo[1.1.1]pentan-1-yl)-4-(3-methylmorpholinyl)-2-(1H-pyrazol-3-yl)-8,9-dihydro-1,3,6,9a-tetraazabenzo[cd]azulene-7(6H)-one] | < 100 | < 10 |  |  |  |
| C[C@@H]1COCCN1c1cc2c3c(n1)c(-c1cc[nH]n1)nn3CCC(=O)N2C1(CF)CC1 [Compound 112, (R)-6-(1-(fluoromethyl)cyclopropyl)-4-(3-methylmorpholinyl)-2-(1H-pyrazol-3-yl)-8,9-dihydro-1,3,6,9a-tetraazabenzo[cd]azulene-7(6H)-one] | < 100 | < 10 |  |  |  |
| COCC1(N2C(=O)CCn3nc(-c4cc[nH]n4)c4nc(N5CCOC[C@H]5C)cc2c43)CC1 [Compound 113, (R)-6-(1-(methoxymethyl)cyclopropyl)-4-(3-methylmorpholinyl)-2-(1H-pyrazol-3-yl)-8,9-dihydro-1,3,6,9a-tetraazabenzo[cd]azulene-7(6H)-one] | 100 to 1000 | 10 to 100 |  |  |  |
| C[C@@H]1COCCN1c1cc2c3c(n1)c(-c1cc[nH]n1)nn3CCC(=O)N2C1(CO)CC1 [Compound 114, (R)-6-(1-(hydroxymethyl)cyclopropyl)-4-(3-methylmorpholinyl)-2-(1H-pyrazol-3-yl)-8,9-dihydro-1,3,6,9a-tetraazabenzo[cd]azulene-7(6H)-one] | 100 to 1000 | < 10 |  |  |  |
| C[C@@H]1COCCN1c1cc2c3c(n1)c(-c1cc[nH]n1)nn3CCC(=O)N2CC12CC(F)(C1)C2 [Compound 115, (R)-6-((3-fluorobicyclo[1.1.1]pentan-1-yl)methyl)-4-(3-methylmorpholinyl)-2-(1H-pyrazol-3-yl)-8,9-dihydro-1,3,6,9a-tetraazabenzo[cd]azulene-7(6H)-one] | < 100 | < 10 |  |  |  |
| C[C@@H]1COCCN1c1cc2c3c(n1)c(-c1cc[nH]n1)nn3CCC(=O)N2CC1(C#N)CC1 [Compound 116, (R)-1-((4-(3-methylmorpholinyl)-7-oxo-2-(1H-pyrazol-3-yl)-8,9-dihydro-1,3,6,9a-tetraazabenzo[cd]azulene-6(7H)-yl)methyl)cyclopropane-1-carbonitrile] | 100 to 1000 | 10 to 100 |  |  |  |
